Measurements published in patent US11660319B2, “Compositions comprising bacterial strains” (priority 2017, dated 2023).

Assays:
[1] = biological target: T1, HDAC1 (Homo sapiens, UniProt Q13547); test: Specific HDAC activity analysis (fluorogenic assay kit, BPS Bioscience); assay type: biochemical; settings: cell free supernatant diluted 1 in 10
T1 construct: purchased BPS Bioscience, CA
Protocol: (§1) Specific HDAC inhibition activity was analysed for HDAC1, 2, 3, 4, 5, 6, 9 using fluorogenic assay kits for each type of HDAC (BPS Bioscience, CA). Assays were conducted according to manufacturer's instructions and each sample were performed in replicates. Cell free supernatants were diluted 1 in 10 and exposed to specific HDAC proteins provided in the kit to maintain consistency between methods.

[2] = biological target: T2, HDAC2 (Homo sapiens, UniProt Q92769); test: as above; assay type: biochemical; settings: cell free supernatant diluted 1 in 10
T2 construct: purchased BPS Bioscience, CA
Protocol: as §1

[3] = biological target: T3, HDAC3 (Homo sapiens, UniProt O15379); test: as above; assay type: biochemical; settings: cell free supernatant diluted 1 in 10
T3 construct: purchased BPS Bioscience, CA
Protocol: as §1

[4] = tested on: U373 astroglioblastoma cells; test: ROS generated by TBHP (DCFDA fluorescence); assay type: cell-based, human; settings: 10% bacteria supernatant
[5] = tested on: HT29-mtx epithelial, mucin-producing cell monolayers; test: IL-8 secretion of HT29-mtx monolayers; assay type: cell-based; settings: bacterial supernatants 24 h; compared to untreated and YCFA-treated cells
Text: HT29-mtx epithelial, mucin-producing cell monolayers were used as an in vitro model to evaluate gut barrier disruption and immune stimulation following treatment with MRx0005 and MRx0029.

[6] = tested on: BALBc mice; test: Gene expression in hippocampus, amygdala and prefrontal cortex (qPCR); assay type: in vivo, mouse; settings: amygdala
Protocol: Animals were allowed to habituate to their holding room for one week after arrival into the animal unit. They receive oral gavage (200 μL dose) of live biotherapeutics at a dose of 1×10^9 CFU for 6 consecutive days between 15:00 and 17:00. On day 7, the animals are decapitated, and tissues are harvested for experimentation.
Total RNA was extracted using the mirVana™ miRNA Isolation kit (Ambion/Llife technologies, Paisley, UK) and DNase treated (Turbo DNA-free, Ambion/life technologies) according to the manufacturers recommendations. RNA was quantified using NanoDrop™ spectrophotometer (Thermo Fisher Scientific Inc., Wilmington, Del., USA) according to the manufacturer's instructions. RNA quality was assessed using the Agilent Bioanalyzer (Agilent, Stockport, UK) according to the manufacturer's procedure and an RNA integrity number (RIN) was calculated. RNA with RIN value >7 was used for subsequent experiments. RNA was reverse transcribed to cDNA using the Applied Biosystems High Capacity cDNA kit (Applied Biosystems, Warrington, UK) according to manufacturer's instructions. Briefly, Multiscribe Reverse Transcriptase (50 U/μL) (1)(2)(1)(10) was added as part of RT master mix, incubated for 25° C. for 10 min, 37° C. for 2 h, 85° C. for 5 min and stored at 4° C. Quantitative PCR was carried out using probes (6 carboxy fluorescein-FAM) designed by Applied Biosystems to mouse specific targeted genes, while using β-actin as an endogenous control. Amplification reactions contained 1 μl cDNA, 5 μl of the 2× PCR Master mix (Roche), 900 nM of each primer and were brought to a total of 10 μl by the addition of RNase-free water. All reactions were performed in triplicate using 96-well plates on the LightCycler®480 System. Thermal cycling conditions were as recommended by the manufacturer (Roche) for 55 cycles. To check for amplicon contamination, each run contained no template controls in triplicate for each probe used. Cycle threshold (Ct) values were recorded. Data was normalized using β-actin and transformed using the 2-ΔΔCT method and presented as a fold change vs. control group.
Expression of genes for neurotransmitter receptors [serotonin receptor 1a(5-HTR1a), dopamine D1 receptor, GABA receptor subunit B1, GABAA receptor, NMDA2A (Grin2A) and NMDA2B (Grin2b) receptor], inflammatory markers [IL-1β, IL6, CD11b, TNFα and TLR4], and endocrine markers [corticosterone releasing factor (CRF), corticosterone releasing factor receptors 1 and 2 (CRFR1, CRFR2), brain-derived neurotrophin factor (BDNF), vasopressin receptor, oxytocin receptor, glucocorticoid receptor and mineralocorticoid receptor] were analysed in brain tissue from the hippocampus, amygdala and prefrontal cortex.

T2 sequence (Q92769 whole entry): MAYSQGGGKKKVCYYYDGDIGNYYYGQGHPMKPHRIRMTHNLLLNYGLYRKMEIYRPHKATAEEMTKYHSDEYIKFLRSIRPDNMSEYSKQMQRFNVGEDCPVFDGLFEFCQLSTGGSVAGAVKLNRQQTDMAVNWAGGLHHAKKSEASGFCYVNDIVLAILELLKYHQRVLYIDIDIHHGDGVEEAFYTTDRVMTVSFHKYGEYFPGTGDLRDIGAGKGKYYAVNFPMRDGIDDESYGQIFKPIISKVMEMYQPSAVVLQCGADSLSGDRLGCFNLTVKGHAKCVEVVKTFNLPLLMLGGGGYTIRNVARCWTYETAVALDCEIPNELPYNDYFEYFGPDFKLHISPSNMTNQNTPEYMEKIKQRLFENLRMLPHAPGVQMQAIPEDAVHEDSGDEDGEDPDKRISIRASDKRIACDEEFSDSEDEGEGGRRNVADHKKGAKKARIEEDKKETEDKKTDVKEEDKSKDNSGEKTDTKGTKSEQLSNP
T1 sequence (Q13547 whole entry): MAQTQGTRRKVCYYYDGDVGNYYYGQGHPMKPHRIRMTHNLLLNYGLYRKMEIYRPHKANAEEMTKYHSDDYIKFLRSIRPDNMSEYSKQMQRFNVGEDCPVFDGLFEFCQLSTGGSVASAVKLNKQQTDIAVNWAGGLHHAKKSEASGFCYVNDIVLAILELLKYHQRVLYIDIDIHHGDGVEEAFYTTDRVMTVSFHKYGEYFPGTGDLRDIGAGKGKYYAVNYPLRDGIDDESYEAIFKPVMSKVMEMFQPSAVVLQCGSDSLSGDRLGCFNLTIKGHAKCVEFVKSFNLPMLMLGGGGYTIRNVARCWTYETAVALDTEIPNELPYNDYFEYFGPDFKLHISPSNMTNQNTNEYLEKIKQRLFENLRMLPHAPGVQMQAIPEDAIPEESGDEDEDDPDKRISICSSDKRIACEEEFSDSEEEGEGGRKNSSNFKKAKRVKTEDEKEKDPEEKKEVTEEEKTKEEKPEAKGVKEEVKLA
T3 sequence (O15379 whole entry): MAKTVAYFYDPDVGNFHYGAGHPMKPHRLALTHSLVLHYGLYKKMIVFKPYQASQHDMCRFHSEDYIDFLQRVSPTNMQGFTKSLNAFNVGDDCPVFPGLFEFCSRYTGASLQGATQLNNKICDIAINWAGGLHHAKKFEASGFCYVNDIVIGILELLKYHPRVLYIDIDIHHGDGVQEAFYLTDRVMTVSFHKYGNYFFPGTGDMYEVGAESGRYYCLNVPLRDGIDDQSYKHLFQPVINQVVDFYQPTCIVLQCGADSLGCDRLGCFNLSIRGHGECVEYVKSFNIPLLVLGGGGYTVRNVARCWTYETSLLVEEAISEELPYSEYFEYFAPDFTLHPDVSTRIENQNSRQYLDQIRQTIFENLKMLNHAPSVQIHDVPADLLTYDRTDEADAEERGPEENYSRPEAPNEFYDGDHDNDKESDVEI
T3 sequence (Q9Y618 395-489 partner limits assumed): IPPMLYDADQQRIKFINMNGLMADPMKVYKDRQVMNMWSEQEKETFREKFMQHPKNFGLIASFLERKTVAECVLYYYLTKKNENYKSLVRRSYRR

Megasphaera massiliensis [MRx0029]
HDAC1 inhibition [1]: very potent inhibitor
HDAC2 inhibition [2]: very potent inhibitor
HDAC3 inhibition [3]: very potent inhibitor
generation of ROS [4]: did not have an effect
secretion of IL-8 [5]: even lower secretion
expression of CD11b [6]: increase
expression of GABBR1 [6]: increased
expression of GABRA2 [6]: significantly increased
expression of TLR4 [6]: significantly increased
glucocorticoid receptor expression [6]: increase
